According to US10902592B2, “Analysis of images of biological material” (Q-linea AB, priority 2016, dated 2021):

Assays:
Format in all cases: cell-based
P.aureginosa = test: Microscopy of P.aureginosa grown in presence of antibiotics (FIGS. 7e-g); conditions: for morphological change of the pathogen: P.aureginosa grown for three hours in presence of the antibiotic, microphotographs
From the text: (§1) FIGS. 7a to 7j show the effect of antibiotics on the morphology of various pathogens. The microphotographs in a) to d) show E. coli grown for three hours either a) in absence of any antibiotics, b) and c) in presence of the antibiotic ceftazidime in different concentrations, and d) or in presence of the antibiotic meropenem. It is clear that the morphological change is not only dependent on the type of antibiotics but is also dose dependent. […] The strain of E. coli shown in these Figures is meropenem sensitive. The microphotographs in e) to g) show P.aureginosa grown for three hours either e) in absence of any antibiotics, f) in presence of the antibiotic ceftazidime or g) in presence of the antibiotic meropenem. […] The P.aureginosa strain shown is meropenem sensitive. The microphotographs of h) to j) show P. mirabilis grown for three hours either h) in absence of any antibiotics, i) in presence of the antibiotic ceftazidime or j) in presence of the antibiotic meropenem. […] The P. mirabilis strain shown is meropenem sensitive.

E. coli = test: Microscopy of E. coli grown in presence of antibiotics (FIGS. 7a-d); conditions: for morphological change of the pathogen: E. coli grown for three hours in presence of the antibiotic, microphotographs
From the text: as §1

P. mirabilis = test: Microscopy of P. mirabilis grown in presence of antibiotics (FIGS. 7h-j); conditions: for morphological change of the pathogen: P. mirabilis grown for three hours in presence of the antibiotic, microphotographs
From the text: as §1

Row | SMILES | morphological change of the pathogen (P.aureginosa) | sensitivity of the strain shown to the antibiotic (P.aureginosa; P.aureginosa strain shown) | morphological change of the pathogen (E. coli) | sensitivity of the strain shown to the antibiotic (E. coli; E. coli strain shown in the Figures) | morphological change of the pathogen (P. mirabilis) | sensitivity of the strain shown to the antibiotic (P. mirabilis; P. mirabilis strain shown)
1 | C[C@@H](O)[C@H]1C(=O)N2C(C(=O)O)=C(S[C@@H]3CN[C@H](C(=O)N(C)C)C3)[C@H](C)[C@H]12 [meropenem] | the same morphological change occurs | sensitive | “swelling” of the pathogen | sensitive | the same morphological change occurs | sensitive
2 | CC(C)(O/N=C(\C(=O)N[C@@H]1C(=O)N2C(C(=O)[O-])=C(C[n+]3ccccc3)CS[C@H]12)c1csc(N)n1)C(=O)O [ceftazidime] | “cluster threads” instead of individual threads | – | thread-like change in morphology | – | a combination of “swelling” and threads | –
